Reference: patent publication US20090227600A1, “4-(PYRAZINE-2-YL) -PYRROLIDINE -2-CARBOXYLIC ACID COMPOUNDS AND DERIVATIVES THEREOF AS HEPATITIS C VIRUS INHIBITORS” (priority 2004, published 2009)

Target: T1, HCV RNA Polymerase, recombinant NS5B with C-terminal 21 amino acid deletion, genotype 1a strain H77 (Hepatitis C virus genotype 1a, UniProt P27958)
T1 construct: fused on or other part: C-terminal 6His-tag
Test: In vitro HCV RNA-dependent RNA polymerase inhibition assay, genotype 1a C-terminally truncated (delta21) enzyme
Format: biochemical, HCV genotype 1a
Settings: genotype 1a delta21 NS5B enzyme; read-out: IC50 in delta-21 1a enzyme inhibition assay
Description: Incorporation of [^33P]-GMP into RNA was followed by absorption of the biotin labelled RNA polymer by streptavidin containing SPA beads. A synthetic template consisting of biotinylated 13mer-oligoG hybridised to polyrC was used as a homopolymer substrate.
a) Genotype 1a C-Terminally Truncated (delta21) Enzyme
HCV RNA Polymerase [Recombinant NS5B with C-terminal 21 amino acid deletion and C-terminal 6His-tag (Ferrari et al. J. Virol, 73(2), 1999, 1649. ‘Characterization of soluble hepatitis C virus RNA-dependent RNA polymerase expressed in Escherichia coli.’) expressed in E. coli and purified to homogeneity] was added to 25 nM final concentration. Polymerase of genotype 1a was from strain H77 (Yanagi, M., Purcell, R. H., Emerson, S. U. & Bukh, J. (1997), Proceedings of the National Academy of Sciences, USA 94, 8738-8743) containing a sequence change from valine to isoleucine at position 180.
Reaction Conditions were 25 nM enzyme, 1.5 μg/ml oligo-rG13/poly-rC and 0.2 μCi α-^33P-GTP in 0.5 μM GTP (20 Ci/mMol), 20 mM Tris pH 7.5, 23 mM NaCl, 3 mM DTT, 5 mM MgCl2, 1 mM MnCl2.
Enzyme was diluted to 500 nM concentration in 20 mM Tris-HCl, pH 7.5, 25 mM NaCl and 3 mM DTT.
4× concentrated assay buffer mix was prepared using 1M Tris-HCl, pH7.5 (1 mL), 5M NaCl (0.25 mL), 1M DTT (0.12 mL) and Water (8.63 mL), Total 10 mL.
2× concentrated first reagent was prepared using 4× concentrated assay buffer mix (5 μL), 40 u/μL RNasin (0.1 μL), 20 μg/mL polyrC/biotinylated-oligoG (1.6 μL), 500 nM enzyme (1 μL) and Water (2.3 μL), Total 10 μl/well.
2× concentrated second reagent was prepared using 1M MgCl2 (0.1 μL), 1M MnCl2 (0.02 μL), 25 μM GTP (0.4 μL), α-[^33P]-GTP (10 μCi/μL, 0.02 μL) and water (9.5 μL), Total 10 μL/well.
The assay was set up using compound (1 μL in 100% DMSO), first reagent (10 μL), and second reagent (10 μL), Total 21 μL.
The reaction was performed in a U-bottomed, white, 96-well plate. The reaction was mixed on a plate-shaker, after addition of the Enzyme, and incubated for 1 h at 22° C. After this time, the reaction was stopped by addition of 60 μL 1.5 mg/ml streptavidin SPA beads (Amersham) in 0.1 M EDTA in PBS. The beads were incubated with the reaction mixture for 1 h at 22° C. after which 100 μL 0.1 M EDTA in PBS was added. The plate was sealed, mixed centrifuged and incorporated radioactivity determined by counting in a Trilux (Wallac) or Topcount (Packard) Scintillation Counter.
After subtraction of background levels without enzyme, any reduction in the amount of radioactivity incorporated in the presence of a compound, compared to that in the absence, was taken as a measure of the level of inhibition. Ten concentrations of compounds were tested in three- or fivefold dilutions. From the counts per minute, percentage of inhibition at highest concentration tested or IC50s for the compounds were calculated using GraFit 3, GraFit 4 or GraFit 5 (Erithacus Software Ltd.) software packages or a data evaluation macro for Excel based on XLFit Software (IDBS).

T1 sequence (P27958 2421-3011 V2599I, form open): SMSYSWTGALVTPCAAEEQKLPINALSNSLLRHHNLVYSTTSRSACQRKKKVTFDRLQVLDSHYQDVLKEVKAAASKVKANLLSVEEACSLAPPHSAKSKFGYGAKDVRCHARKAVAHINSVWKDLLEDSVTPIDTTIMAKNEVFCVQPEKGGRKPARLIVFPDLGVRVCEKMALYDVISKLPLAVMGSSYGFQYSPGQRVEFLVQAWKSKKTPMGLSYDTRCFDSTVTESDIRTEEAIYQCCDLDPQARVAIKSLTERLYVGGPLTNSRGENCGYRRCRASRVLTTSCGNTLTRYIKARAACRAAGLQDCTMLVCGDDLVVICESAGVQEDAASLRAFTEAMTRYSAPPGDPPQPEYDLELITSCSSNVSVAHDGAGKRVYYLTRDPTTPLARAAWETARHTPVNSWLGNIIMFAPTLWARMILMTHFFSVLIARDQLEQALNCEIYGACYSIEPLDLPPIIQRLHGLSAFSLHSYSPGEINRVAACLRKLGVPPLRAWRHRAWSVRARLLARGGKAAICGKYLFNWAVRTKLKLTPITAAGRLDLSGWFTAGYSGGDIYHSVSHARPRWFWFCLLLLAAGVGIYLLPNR

COc1cc(C(=O)N2[C@@H](c3ncc(C)s3)[C@@H](c3cnccn3)C[C@@]2(Cc2cscn2)C(=O)O)ccc1C(C)(C)C (single isomer, unassigned; enantiomer a) [Example 16]
IC50: < 150 nM
